The values below are quoted from earlier work in patent EP4789665A1, “TREATMENT OF HIS HYPORESPONDERS” (NewAmsterdam Pharma B.V., priority 2021, dated 2023).

Data set [1] deals with T1, CETP (Homo sapiens, UniProt P11597).
T1 construct: endogenous in cells; host or cells: trial patients (in vivo, circulating plasma CETP)
T1 sequence (P11597 18-493): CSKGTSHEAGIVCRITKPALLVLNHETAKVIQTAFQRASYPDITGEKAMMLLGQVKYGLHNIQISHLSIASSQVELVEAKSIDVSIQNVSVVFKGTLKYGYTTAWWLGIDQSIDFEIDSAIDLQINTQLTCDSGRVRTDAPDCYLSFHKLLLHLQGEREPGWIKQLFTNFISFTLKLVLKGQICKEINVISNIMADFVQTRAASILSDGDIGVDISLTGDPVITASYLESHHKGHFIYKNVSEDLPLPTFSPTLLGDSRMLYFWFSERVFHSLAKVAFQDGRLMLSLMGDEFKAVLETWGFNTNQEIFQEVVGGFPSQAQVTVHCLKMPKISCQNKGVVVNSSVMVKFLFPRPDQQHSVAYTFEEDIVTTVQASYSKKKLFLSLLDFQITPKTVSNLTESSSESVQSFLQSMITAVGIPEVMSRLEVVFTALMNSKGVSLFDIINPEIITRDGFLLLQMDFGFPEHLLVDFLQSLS
As to conditions: in vivo; cited from earlier work.

Another data set deals with T2, HMG CoA reductase (Homo sapiens, UniProt P04035).
T2 construct: host or cells: patients of the JUPITER study (in vivo)
T2 sequence (P04035 1-888): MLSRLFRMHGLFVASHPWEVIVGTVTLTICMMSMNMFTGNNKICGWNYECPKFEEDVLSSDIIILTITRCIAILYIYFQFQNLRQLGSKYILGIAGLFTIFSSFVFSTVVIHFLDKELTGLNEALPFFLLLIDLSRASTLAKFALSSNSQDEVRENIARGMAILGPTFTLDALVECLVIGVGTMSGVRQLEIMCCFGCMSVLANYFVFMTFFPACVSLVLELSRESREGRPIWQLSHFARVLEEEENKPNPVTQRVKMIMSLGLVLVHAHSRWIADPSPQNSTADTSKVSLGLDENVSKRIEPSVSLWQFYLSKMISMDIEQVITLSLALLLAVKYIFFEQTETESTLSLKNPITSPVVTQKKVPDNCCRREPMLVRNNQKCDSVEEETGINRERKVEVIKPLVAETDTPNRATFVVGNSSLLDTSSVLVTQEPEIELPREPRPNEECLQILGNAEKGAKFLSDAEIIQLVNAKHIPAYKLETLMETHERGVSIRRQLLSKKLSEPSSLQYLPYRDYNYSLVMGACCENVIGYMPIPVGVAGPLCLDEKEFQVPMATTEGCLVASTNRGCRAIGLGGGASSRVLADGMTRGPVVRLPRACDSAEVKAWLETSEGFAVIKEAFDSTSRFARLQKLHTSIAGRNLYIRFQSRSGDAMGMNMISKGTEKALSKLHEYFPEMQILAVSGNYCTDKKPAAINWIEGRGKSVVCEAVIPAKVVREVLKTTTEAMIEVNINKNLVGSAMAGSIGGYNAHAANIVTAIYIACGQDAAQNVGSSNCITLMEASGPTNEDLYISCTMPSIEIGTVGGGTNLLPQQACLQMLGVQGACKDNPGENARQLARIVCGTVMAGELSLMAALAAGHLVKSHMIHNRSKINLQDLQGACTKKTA
As to conditions: rosuvastatin 20 mg; JUPITER secondary analysis; cited from earlier work.

For data set [2], the target named is T1, CETP. As to conditions: in combination with atorvastatin; cited from earlier work.

Consider `CCC(CC)CC1(C(=O)Nc2ccccc2SC(=O)C(C)C)CCCCC1` [dalcetrapib], for which, at CETP [1], the “effects on LDL-C concentrations” value is “minimal effects on LDL-C concentrations” and the “increased HDL-C by” value is recorded as 30-40%.
Take `CC(C)c1nc(N(C)S(C)(=O)=O)nc(-c2ccc(F)cc2)c1/C=C/[C@@H](O)C[C@@H](O)CC(=O)O` [rosuvastatin]: on HMG CoA reductase, the “median LDL-C lowering response” value is 50%.
As to `CCOC(=O)N1c2ccc(C(F)(F)F)cc2[C@@H](N(Cc2cc(C(F)(F)F)cc(C(F)(F)F)c2)C(=O)OC)C[C@H]1CC` [torcetrapib], the “cardiovascular events and death” value at CETP [2] was “unexpected increase in cardiovascular events and death”.
